Entries after “also recorded” stand apart in the source; their conditions may differ.
Tested on: LAGλ-1 tumor
Experiment: LAGλ-1 human MM xenograft in SCID mice
Format: in vivo, CB17 SCID mice
Details: melphalan 3 mg/kg twice weekly i.p., vs untreated mice
Text: Serum human BCMA levels also correlated with tumor growth, IgG levels and response to treatment in mice bearing another human MM xenograft, LAGλ-1. Untreated mice (n=4) had large tumor volumes and high serum IgG and BCMA levels. […] Human BCMA was not detected in the serum of non-tumor bearing SCID mice (data not shown).

N[C@@H](Cc1ccc(N(CCCl)CCCl)cc1)C(=O)O [melphalan, Melphalan]
tumor volumes (P<0.0001): smaller; also recorded: small tumor volumes | serum IgG levels (P=0.0033): smaller; also recorded: significantly reduced | serum human BCMA levels (P=0.0055): smaller; also recorded: significantly reduced

Reference: US12174189B2, “Diagnostic, prognostic, and monitoring methods for chronic lymphocytic leukemia” (INSTITUTE FOR MYELOMA & BONE CANCER RESEARCH, priority 2013, dated 2024)
